Measured values published in the kinase profiling compilation of Christmann-Franck et al. (2016).

Key:
Assay in all cases: KINOMEscan competition binding
Details in all cases: compound 10.0 µM
AURKB (human) = AURKB (human) (UniProt Q96GD4)
AURKC (human) = AURKC (human) (UniProt Q9UQB9)
CAMKK1 (human) = CAMKK1 (human) (UniProt Q8N5S9)
CDK18 (human) = CDK18 (human) (UniProt Q07002)
CDK2 (human) = CDK2 (human) (UniProt P24941)
CSNK1E (human) = CSNK1E (human) (UniProt P49674)
DAPK1 (human) = DAPK1 (human) (UniProt P53355)
DDR1 (human) = DDR1 (human) (UniProt Q08345)
FER (human) = FER (human) (UniProt P16591)
FGFR2 (human) = FGFR2 (human) (UniProt P21802)
FGFR4 (human) = FGFR4 (human) (UniProt P22455)
ITK (human) = ITK (human) (UniProt Q08881)
[1] = target: JAK1 JH1 catalytic (human) (UniProt P23458)
[2] = test system: KIT (human), P10721 [V559D/V654A]
Sequence of KIT (human), P10721 [V559D/V654A] (P10721 whole entry V559D/V654A, looked up): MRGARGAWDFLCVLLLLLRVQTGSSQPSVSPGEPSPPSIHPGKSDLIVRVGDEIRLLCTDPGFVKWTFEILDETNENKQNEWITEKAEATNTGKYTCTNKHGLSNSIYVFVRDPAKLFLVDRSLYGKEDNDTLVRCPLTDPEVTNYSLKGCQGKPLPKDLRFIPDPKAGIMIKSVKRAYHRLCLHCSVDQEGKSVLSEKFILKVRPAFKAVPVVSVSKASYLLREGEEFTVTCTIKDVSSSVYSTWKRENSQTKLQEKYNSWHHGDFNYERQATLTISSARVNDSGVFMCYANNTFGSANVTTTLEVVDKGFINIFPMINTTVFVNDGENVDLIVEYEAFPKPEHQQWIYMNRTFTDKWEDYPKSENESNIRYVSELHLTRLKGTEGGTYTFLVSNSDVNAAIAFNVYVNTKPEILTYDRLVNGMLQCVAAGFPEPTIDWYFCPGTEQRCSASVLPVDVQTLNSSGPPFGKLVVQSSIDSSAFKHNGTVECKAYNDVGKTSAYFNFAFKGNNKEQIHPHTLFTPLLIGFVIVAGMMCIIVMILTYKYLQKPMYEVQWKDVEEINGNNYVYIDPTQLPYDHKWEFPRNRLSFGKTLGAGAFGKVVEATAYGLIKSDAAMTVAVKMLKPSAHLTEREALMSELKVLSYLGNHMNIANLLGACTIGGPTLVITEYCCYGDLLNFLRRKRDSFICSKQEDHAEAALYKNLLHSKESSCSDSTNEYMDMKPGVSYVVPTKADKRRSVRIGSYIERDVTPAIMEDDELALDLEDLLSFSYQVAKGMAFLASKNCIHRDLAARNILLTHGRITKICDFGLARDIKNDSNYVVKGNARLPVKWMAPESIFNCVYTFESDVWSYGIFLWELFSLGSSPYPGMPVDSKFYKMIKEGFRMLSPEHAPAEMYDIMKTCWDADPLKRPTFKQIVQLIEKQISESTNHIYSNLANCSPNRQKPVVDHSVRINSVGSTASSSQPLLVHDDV

MAPK11 (human) = MAPK11 (human) (UniProt Q15759)
MKNK1 (human) = MKNK1 (human) (UniProt Q9BUB5)
Sequence of MKNK1 (human) (Q9BUB5 whole entry, looked up): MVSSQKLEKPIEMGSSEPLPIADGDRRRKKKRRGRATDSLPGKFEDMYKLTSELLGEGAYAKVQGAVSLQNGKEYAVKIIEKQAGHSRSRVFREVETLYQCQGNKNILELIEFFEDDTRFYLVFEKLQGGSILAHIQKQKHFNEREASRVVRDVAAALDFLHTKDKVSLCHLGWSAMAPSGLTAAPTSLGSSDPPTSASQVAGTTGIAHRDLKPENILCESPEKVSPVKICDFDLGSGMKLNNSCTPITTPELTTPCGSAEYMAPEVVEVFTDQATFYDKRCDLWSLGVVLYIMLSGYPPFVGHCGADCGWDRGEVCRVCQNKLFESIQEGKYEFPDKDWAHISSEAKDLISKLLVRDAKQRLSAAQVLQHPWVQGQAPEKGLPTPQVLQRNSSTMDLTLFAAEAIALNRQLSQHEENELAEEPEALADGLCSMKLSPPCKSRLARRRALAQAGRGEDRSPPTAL

MUSK (human) = MUSK (human) (UniProt O15146)
NEK7 (human) = NEK7 (human) (UniProt Q8TDX7)
PIK3CA (human) = PIK3CA (human) (UniProt P42336)
Sequence of PIK3CA (human) (P42336 whole entry, looked up): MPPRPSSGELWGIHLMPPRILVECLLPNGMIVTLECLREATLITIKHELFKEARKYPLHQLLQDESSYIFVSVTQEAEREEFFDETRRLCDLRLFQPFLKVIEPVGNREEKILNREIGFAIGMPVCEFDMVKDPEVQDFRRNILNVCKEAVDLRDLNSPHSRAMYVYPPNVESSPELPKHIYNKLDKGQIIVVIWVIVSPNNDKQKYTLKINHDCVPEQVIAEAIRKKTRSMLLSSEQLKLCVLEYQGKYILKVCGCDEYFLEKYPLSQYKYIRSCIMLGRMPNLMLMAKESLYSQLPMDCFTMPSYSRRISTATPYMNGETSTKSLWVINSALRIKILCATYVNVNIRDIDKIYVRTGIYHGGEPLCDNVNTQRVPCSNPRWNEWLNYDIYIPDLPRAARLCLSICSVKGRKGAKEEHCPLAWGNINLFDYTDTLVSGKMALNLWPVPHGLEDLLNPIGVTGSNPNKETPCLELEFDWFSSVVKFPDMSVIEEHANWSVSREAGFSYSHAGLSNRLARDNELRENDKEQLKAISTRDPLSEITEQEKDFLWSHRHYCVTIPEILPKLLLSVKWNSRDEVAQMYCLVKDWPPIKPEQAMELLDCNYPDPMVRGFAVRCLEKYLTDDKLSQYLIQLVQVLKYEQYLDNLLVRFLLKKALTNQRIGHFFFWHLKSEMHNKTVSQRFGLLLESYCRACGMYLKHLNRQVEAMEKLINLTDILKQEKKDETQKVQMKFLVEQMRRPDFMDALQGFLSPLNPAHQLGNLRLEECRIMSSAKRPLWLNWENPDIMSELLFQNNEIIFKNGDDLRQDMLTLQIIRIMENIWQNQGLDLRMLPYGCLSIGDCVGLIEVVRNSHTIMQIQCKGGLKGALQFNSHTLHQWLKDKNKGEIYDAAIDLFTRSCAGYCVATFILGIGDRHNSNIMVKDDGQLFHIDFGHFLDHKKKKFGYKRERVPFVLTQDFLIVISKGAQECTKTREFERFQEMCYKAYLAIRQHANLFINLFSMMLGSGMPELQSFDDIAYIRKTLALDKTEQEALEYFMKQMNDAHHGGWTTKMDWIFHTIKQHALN

PIM2 (human) = PIM2 (human) (UniProt Q9P1W9)
PRKCH (human) = PRKCH (human) (UniProt P24723)
PTK2 (human) = PTK2 (human) (UniProt Q05397)
RIPK2 (human) = RIPK2 (human) (UniProt O43353)
RIPK4 (human) = RIPK4 (human) (UniProt P57078)
Sequence of RIPK4 (human) (P57078 whole entry, looked up): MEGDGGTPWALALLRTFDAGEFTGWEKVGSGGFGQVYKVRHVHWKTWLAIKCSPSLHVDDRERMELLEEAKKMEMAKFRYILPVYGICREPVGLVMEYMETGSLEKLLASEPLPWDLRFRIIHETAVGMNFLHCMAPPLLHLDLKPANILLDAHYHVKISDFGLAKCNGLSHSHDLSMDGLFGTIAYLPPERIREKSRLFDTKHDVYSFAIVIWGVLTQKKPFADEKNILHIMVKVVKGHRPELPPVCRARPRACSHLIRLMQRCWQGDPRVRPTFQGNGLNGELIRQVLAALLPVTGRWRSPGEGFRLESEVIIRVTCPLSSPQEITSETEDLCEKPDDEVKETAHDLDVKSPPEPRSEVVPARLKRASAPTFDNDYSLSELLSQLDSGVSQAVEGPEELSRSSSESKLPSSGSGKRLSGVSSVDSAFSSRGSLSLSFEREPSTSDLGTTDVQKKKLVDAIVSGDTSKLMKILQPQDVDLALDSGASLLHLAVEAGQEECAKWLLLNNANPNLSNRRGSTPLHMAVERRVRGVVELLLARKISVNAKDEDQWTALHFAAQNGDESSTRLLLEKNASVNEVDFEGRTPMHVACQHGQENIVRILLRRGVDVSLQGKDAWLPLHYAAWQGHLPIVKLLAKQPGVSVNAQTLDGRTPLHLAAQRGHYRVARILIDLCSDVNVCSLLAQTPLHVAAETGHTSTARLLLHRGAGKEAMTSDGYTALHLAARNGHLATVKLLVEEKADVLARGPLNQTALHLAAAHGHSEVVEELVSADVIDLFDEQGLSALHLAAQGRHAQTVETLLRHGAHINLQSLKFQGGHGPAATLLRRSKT

SRMS (human) = SRMS (human) (UniProt Q9H3Y6)
Sequence of SRMS (human) (Q9H3Y6 whole entry, looked up): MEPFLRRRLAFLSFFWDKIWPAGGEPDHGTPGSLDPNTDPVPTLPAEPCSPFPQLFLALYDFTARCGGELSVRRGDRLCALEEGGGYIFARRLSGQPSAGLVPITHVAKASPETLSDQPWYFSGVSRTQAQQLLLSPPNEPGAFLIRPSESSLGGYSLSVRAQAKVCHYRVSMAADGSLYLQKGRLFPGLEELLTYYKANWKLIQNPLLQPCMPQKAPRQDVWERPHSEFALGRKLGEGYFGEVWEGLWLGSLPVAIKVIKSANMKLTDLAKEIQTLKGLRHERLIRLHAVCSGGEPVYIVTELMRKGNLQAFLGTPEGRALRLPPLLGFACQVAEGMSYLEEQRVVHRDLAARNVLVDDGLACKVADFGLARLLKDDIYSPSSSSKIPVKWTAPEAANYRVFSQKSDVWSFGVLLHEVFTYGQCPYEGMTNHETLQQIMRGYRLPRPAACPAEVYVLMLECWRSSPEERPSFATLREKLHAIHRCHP

SRPK2 (human) = SRPK2 (human) (UniProt P78362)
STK3 (human) = STK3 (human) (UniProt Q13188)
Sequence of STK3 (human) (Q13188 whole entry, looked up): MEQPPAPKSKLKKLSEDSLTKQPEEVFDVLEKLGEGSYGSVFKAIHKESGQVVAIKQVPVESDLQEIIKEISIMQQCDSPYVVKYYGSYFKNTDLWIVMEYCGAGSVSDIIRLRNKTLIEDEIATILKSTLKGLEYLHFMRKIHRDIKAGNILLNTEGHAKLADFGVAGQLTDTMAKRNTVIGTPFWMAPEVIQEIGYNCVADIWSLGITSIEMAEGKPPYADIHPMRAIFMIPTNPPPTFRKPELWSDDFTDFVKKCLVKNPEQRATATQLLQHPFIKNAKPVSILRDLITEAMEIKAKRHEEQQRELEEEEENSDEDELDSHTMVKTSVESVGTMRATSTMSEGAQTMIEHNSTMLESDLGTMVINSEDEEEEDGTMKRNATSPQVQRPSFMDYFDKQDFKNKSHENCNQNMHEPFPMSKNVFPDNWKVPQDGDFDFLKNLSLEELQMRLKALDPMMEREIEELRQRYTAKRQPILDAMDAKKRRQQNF

TEK (human) = TEK (human) (UniProt Q02763)
TLK1 (human) = TLK1 (human) (UniProt Q9UKI8)
TYRO3 (human) = TYRO3 (human) (UniProt Q06418)
WEE2 (human) = WEE2 (human) (UniProt P0C1S8)
HIPK4 (human) = HIPK4 (human) (UniProt Q8NE63)
PRPF4B (human) = PRPF4B (human) (UniProt Q13523)
SIK3 (human) = SIK3 (human) (UniProt Q9Y2K2)
STK38 (human) = STK38 (human) (UniProt Q15208)
YSK4 (human) = YSK4 (human) (UniProt Q56UN5)

Sequence of CDK18 (human) (Q07002 whole entry, looked up): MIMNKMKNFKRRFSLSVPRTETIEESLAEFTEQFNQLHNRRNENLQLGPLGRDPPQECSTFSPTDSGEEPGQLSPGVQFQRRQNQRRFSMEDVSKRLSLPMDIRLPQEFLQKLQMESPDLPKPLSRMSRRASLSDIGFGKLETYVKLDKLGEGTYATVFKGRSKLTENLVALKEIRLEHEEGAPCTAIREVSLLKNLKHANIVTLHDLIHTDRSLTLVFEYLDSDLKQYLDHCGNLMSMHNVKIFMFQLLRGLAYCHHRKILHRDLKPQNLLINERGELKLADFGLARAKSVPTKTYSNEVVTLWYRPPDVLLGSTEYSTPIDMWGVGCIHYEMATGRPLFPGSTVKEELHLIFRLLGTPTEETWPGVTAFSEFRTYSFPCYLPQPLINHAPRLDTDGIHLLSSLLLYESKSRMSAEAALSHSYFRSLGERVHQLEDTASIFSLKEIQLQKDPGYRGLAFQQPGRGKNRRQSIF

SMILES	kinase still bound, per cent of control (AURKB (human)) [%]	kinase still bound, per cent of control (AURKC (human)) [%]	kinase still bound, per cent of control (CAMKK1 (human)) [%]	kinase still bound, per cent of control (CDK18 (human)) [%]	kinase still bound, per cent of control (CDK2 (human)) [%]	kinase still bound, per cent of control (CSNK1E (human)) [%]	kinase still bound, per cent of control (DAPK1 (human)) [%]	kinase still bound, per cent of control (DDR1 (human)) [%]	kinase still bound, per cent of control (FER (human)) [%]	kinase still bound, per cent of control (ITK (human)) [%]	kinase still bound, per cent of control [2] [%]	kinase still bound, per cent of control (MAPK11 (human)) [%]	kinase still bound, per cent of control (MKNK1 (human)) [%]	kinase still bound, per cent of control (MUSK (human)) [%]	kinase still bound, per cent of control (NEK7 (human)) [%]	kinase still bound, per cent of control (PIK3CA (human)) [%]	kinase still bound, per cent of control (PIM2 (human)) [%]	kinase still bound, per cent of control (PRKCH (human)) [%]	kinase still bound, per cent of control (PTK2 (human)) [%]	kinase still bound, per cent of control (RIPK2 (human)) [%]	other results
Cc1n[nH]c2ccc(-c3cncc(OC[C@@H](N)Cc4c[nH]c5ccccc45)c3)cc12	100	34	2.4	28	100	0.05	2.2	100	100	100	100	100	19	100	100	100	1.2	1.4	100	100	kinase still bound, per cent of control (FGFR2 (human)): 100%; kinase still bound, per cent of control (FGFR4 (human)): 100%; kinase still bound, per cent of control [1]: 100%; kinase still bound, per cent of control (RIPK4 (human)): 100%; kinase still bound, per cent of control (SRMS (human)): 100%; kinase still bound, per cent of control (SRPK2 (human)): 22%; kinase still bound, per cent of control (STK3 (human)): 0.35%; kinase still bound, per cent of control (TEK (human)): 100%; kinase still bound, per cent of control (TLK1 (human)): 100%; kinase still bound, per cent of control (TYRO3 (human)): 100%; kinase still bound, per cent of control (WEE2 (human)): 100%
CS(=O)(=O)N1CCN(Cc2cc3nc(-c4cccc5[nH]ncc45)nc(N4CCOCC4)c3s2)CC1	100	100	100	100	100	100	100	100	100	100	100	100	100	100	100	0.15	100	100	100	100	kinase still bound, per cent of control (FGFR2 (human)): 100%; kinase still bound, per cent of control (FGFR4 (human)): 100%; kinase still bound, per cent of control (HIPK4 (human)): 100%; kinase still bound, per cent of control [1]: 100%; kinase still bound, per cent of control (PRPF4B (human)): 100%; kinase still bound, per cent of control (RIPK4 (human)): 100%; kinase still bound, per cent of control (SIK3 (human)): 100%; kinase still bound, per cent of control (SRMS (human)): 100%; kinase still bound, per cent of control (SRPK2 (human)): 100%; kinase still bound, per cent of control (STK3 (human)): 100%; kinase still bound, per cent of control (STK38 (human)): 100%; kinase still bound, per cent of control (TEK (human)): 100%; kinase still bound, per cent of control (TLK1 (human)): 100%; kinase still bound, per cent of control (TYRO3 (human)): 100%; kinase still bound, per cent of control (WEE2 (human)): 100%; kinase still bound, per cent of control (YSK4 (human)): 100%
CNC(=O)c1ccc(Nc2cc(Nc3ccccc3S(=O)(=O)C(C)C)c3cc[nH]c3n2)nc1	0.7	0.65	100	100	100	29	100	100	1.1	0.15	100	100	100	0.95	100	100	100	100	0	100	kinase still bound, per cent of control (FGFR2 (human)): 25%; kinase still bound, per cent of control (FGFR4 (human)): 100%; kinase still bound, per cent of control [1]: 2%; kinase still bound, per cent of control (RIPK4 (human)): 100%; kinase still bound, per cent of control (SRMS (human)): 100%; kinase still bound, per cent of control (SRPK2 (human)): 24%; kinase still bound, per cent of control (STK3 (human)): 0.2%; kinase still bound, per cent of control (TEK (human)): 1.8%; kinase still bound, per cent of control (TLK1 (human)): 100%; kinase still bound, per cent of control (TYRO3 (human)): 29%; kinase still bound, per cent of control (WEE2 (human)): 100%
C=CC(=O)Nc1ccc(CN(C(=O)Nc2c(Cl)c(OC)cc(OC)c2Cl)c2cc(Nc3ccc(N4CCN(C)CC4)cc3)ncn2)cc1	100	100	100	100	100	100	100	0	100	16	100	100	100	6.2	100	100	100	100	100	100	kinase still bound, per cent of control (FGFR2 (human)): 1.9%; kinase still bound, per cent of control (FGFR4 (human)): 0.1%; kinase still bound, per cent of control [1]: 100%; kinase still bound, per cent of control (RIPK4 (human)): 100%; kinase still bound, per cent of control (SRMS (human)): 100%; kinase still bound, per cent of control (SRPK2 (human)): 100%; kinase still bound, per cent of control (STK3 (human)): 100%; kinase still bound, per cent of control (TEK (human)): 0.95%; kinase still bound, per cent of control (TLK1 (human)): 100%; kinase still bound, per cent of control (TYRO3 (human)): 100%; kinase still bound, per cent of control (WEE2 (human)): 100%
CCN(CC)CCCCNc1ncc2cc(-c3cc(OC)cc(OC)c3)c(NC(=O)NC(C)(C)C)nc2n1	100	100	100	100	100	100	100	1.1	100	100	100	100	100	100	100	20	100	100	100	100	kinase still bound, per cent of control (SRMS (human)): 100%; kinase still bound, per cent of control (SRPK2 (human)): 100%; kinase still bound, per cent of control (STK3 (human)): 100%; kinase still bound, per cent of control (TEK (human)): 100%; kinase still bound, per cent of control (TLK1 (human)): 100%; kinase still bound, per cent of control (TYRO3 (human)): 100%
